Test results taken from US20250214976A1, “GPR35 MODULATORS AND USES THEREOF” (Crossignal Therapeutics, Inc., priority 2022, published 2025).

Molecular target: T1, human GPR35 (Homo sapiens, UniProt Q9HC97)
T1 construct: expressed in transfected cells; host or cells: HEK293
Experiment: Luciferase Reporter Assay (YAP responsive element) in HEK293 cells stably transfected with human GPR35
Type: cell-based
Settings: overnight incubation
Procedure: HEK293 cells stably transfected with human GPR35 were maintained in Dulbecco's Modified Eagle Medium (DMEM) supplemented with 10% FBS and 300 μg/mL Zeocin and 200 μg/mL Hygromycin at 37° C., 10% CO2. On Day 1, cells were plated in poly-D-lysine coated 96-well tissue culture plate in regular growth medium (DMEM/10% FBS/300 μg/mL Zeocin/200 μg/mL Hygromycin. On the next day, luciferase reporter plasmid DNA with YAP responsive element was transfected into cells using lipofectamine 2000 (Invitrogen) following manufacture's protocol. After transfection for 6 hr., cells were treated with testing compounds in fasting DMEM medium (phenol red free, FBS free) at varying compound concentrations ranging from 10 μM to […] in a 3-fold serial diluted fashion. After an overnight incubation, the luciferase activities were measured with SteadyLite Plus Kit (PerkinElmer) according to manufacturer's protocol. IC50 was determined by fitting the dose-response data to a four-parameter logistic curve using GraphPad Prism.
The symbol “+” indicates IC50 is greater than […]. “++” indicates IC50>100 nM but ≤[…]. “+++” indicates IC50≤100 nM.

T1 sequence (Q9HC97 whole entry): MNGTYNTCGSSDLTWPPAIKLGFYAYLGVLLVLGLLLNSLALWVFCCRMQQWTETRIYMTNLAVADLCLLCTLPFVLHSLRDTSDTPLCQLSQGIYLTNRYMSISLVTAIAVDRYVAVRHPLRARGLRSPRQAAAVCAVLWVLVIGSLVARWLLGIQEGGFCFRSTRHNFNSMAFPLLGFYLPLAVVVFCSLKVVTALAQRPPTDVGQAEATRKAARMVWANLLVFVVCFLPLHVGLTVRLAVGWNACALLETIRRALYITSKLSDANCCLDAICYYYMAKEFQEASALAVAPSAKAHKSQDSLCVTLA

| Compound | IC50 [nM] |
| --- | --- |
| O=C(Nc1ccc(OC(CF)CF)c(F)c1)c1coc2cc(-c3nnn[nH]3)c(F)cc12 [Compound 1-35, N-(4-((1,3-difluoropropan-2-yl)oxy)-3-fluorophenyl)-5-fluoro-6-(1H-tetrazol-5-yl)benzofuran-3-carboxamide] | 100 to 1000 |
| O=C(Nc1ccc(OCc2ccc(F)cc2Cl)cc1)c1coc2cc(Oc3nnn[nH]3)c(F)cc12 [Compound 1-39, 6-((1H-tetrazol-5-yl)oxy)-N-(4-((2-chloro-4-fluorobenzyl)oxy)phenyl)-5-fluorobenzofuran-3-carboxamide] | 100 to 1000 |
| O=C(Nc1ccc(Oc2ccc(F)cc2Cl)cc1)c1coc2cc(-c3nnn[nH]3)c(F)cc12 [Compound 1-40, N-(4-(2-chloro-4-fluorophenoxy)phenyl)-5-fluoro-6-(1H-tetrazol-5-yl)benzofuran-3-carboxamide] | 100 to 1000 |
| O=C(Nc1ccc(OCc2ccc(Cl)cc2F)cc1)c1coc2cc(-c3nnn[nH]3)c(F)cc12 [Compound 1-41, N-(4-((4-chloro-2-fluorobenzyl)oxy)phenyl)-5-fluoro-6-(1H-tetrazol-5-yl)benzofuran-3-carboxamide] | ≤ 100 |
| O=C(Nc1ccc(OCc2ccc(F)c(Cl)c2)cc1)c1coc2cc(-c3nnn[nH]3)c(F)cc12 [Compound 1-43, N-(4-((3-chloro-4-fluorobenzyl)oxy)phenyl)-5-fluoro-6-(1H-tetrazol-5-yl)benzofuran-3-carboxamide] | ≤ 100 |
| N#Cc1ccc(COc2ccc(NC(=O)c3coc4cc(-c5nnn[nH]5)c(F)cc34)cc2)c(Cl)c1 [Compound 1-46, N-(4-((2-chloro-4-cyanobenzyl)oxy)phenyl)-5-fluoro-6-(1H-tetrazol-5-yl)benzofuran-3-carboxamide] | 100 to 1000 |
| N#Cc1cc(F)ccc1COc1ccc(NC(=O)c2coc3cc(-c4nnn[nH]4)c(F)cc23)cc1 [Compound 1-48, N-(4-((2-cyano-4-fluorobenzyl)oxy)phenyl)-5-fluoro-6-(1H-tetrazol-5-yl)benzofuran-3-carboxamide] | 100 to 1000 |
| O=C(Nc1ccc(OCc2cc(F)c(F)cc2Cl)cc1)c1coc2cc(-c3nnn[nH]3)c(F)cc12 [Compound 1-50, N-(4-((2-chloro-4,5-difluorobenzyl)oxy)phenyl)-5-fluoro-6-(1H-tetrazol-5-yl)benzofuran-3-carboxamide] | 100 to 1000 |
| O=C(Nc1ccc(OCc2ccc(Cl)cn2)cc1)c1coc2cc(-c3nnn[nH]3)c(F)cc12 [Compound 1-51, N-(4-((5-chloropyridin-2-yl)methoxy)phenyl)-5-fluoro-6-(1H-tetrazol-5-yl)benzofuran-3-carboxamide] | ≤ 100 |
| O=C(Nc1ccc(OCc2cc(F)c(Cl)c(F)c2)cc1)c1coc2cc(-c3nnn[nH]3)c(F)cc12 [Compound 1-53, N-(4-((4-chloro-3,5-difluorobenzyl)oxy)phenyl)-5-fluoro-6-(1H-tetrazol-5-yl)benzofuran-3-carboxamide] | ≤ 100 |
| O=C(Nc1ccc(OCc2cc(F)c(Cl)cc2F)cc1)c1coc2cc(-c3nnn[nH]3)c(F)cc12 [Compound 1-55, N-(4-((4-chloro-2,5-difluorobenzyl)oxy)phenyl)-5-fluoro-6-(1H-tetrazol-5-yl)benzofuran-3-carboxamide] | 100 to 1000 |

More lines, now with the values ahead:

| IC50 [nM] | Compound |
| --- | --- |
| 100 to 1000 | O=C(Nc1ccc(N2CC3C(C2)C3(F)F)c(F)c1)c1coc2cc(-c3nnn[nH]3)c(F)cc12 (stereo not drawn) [Compound 1-42, N-(4-(6,6-difluoro-3-azabicyclo[3.1.0]hexan-3-yl)-3-fluorophenyl)-5-fluoro-6-(1H-tetrazol-5-yl)benzofuran-3-carboxamide] |
| 100 to 1000 | O=C(Nc1ccc(OCc2cccc(F)c2Cl)cc1)c1coc2cc(-c3nnn[nH]3)c(F)cc12 [Compound 1-44, N-(4-((2-chloro-3-fluorobenzyl)oxy)phenyl)-5-fluoro-6-(1H-tetrazol-5-yl)benzofuran-3-carboxamide] |
| 100 to 1000 | O=C(Nc1ccc(OCc2cc(F)cc(Cl)c2)cc1)c1coc2cc(-c3nnn[nH]3)c(F)cc12 [Compound 1-45, N-(4-((3-chloro-5-fluorobenzyl)oxy)phenyl)-5-fluoro-6-(1H-tetrazol-5-yl)benzofuran-3-carboxamide] |
| 100 to 1000 | O=C(Nc1ccc(OCc2ccc(F)cn2)cc1)c1coc2cc(-c3nnn[nH]3)c(F)cc12 [Compound 1-47, 5-fluoro-N-(4-((5-fluoropyridin-2-yl)methoxy)phenyl)-6-(1H-tetrazol-5-yl)benzofuran-3-carboxamide] |
| ≤ 100 | O=C(Nc1ccc(OCc2ccc(Cl)c(F)c2)cc1)c1coc2cc(-c3nnn[nH]3)c(F)cc12 [Compound 1-49, N-(4-((4-chloro-3-fluorobenzyl)oxy)phenyl)-5-fluoro-6-(1H-tetrazol-5-yl)benzofuran-3-carboxamide] |
| 100 to 1000 | N#Cc1cc(Cl)ccc1COc1ccc(NC(=O)c2coc3cc(-c4nnn[nH]4)c(F)cc23)cc1 [Compound 1-52, N-(4-((4-chloro-2-cyanobenzyl)oxy)phenyl)-5-fluoro-6-(1H-tetrazol-5-yl)benzofuran-3-carboxamide] |
| 100 to 1000 | O=C(Nc1ccc(OCc2c(F)cc(Cl)cc2F)cc1)c1coc2cc(-c3nnn[nH]3)c(F)cc12 [Compound 1-54, N-(4-((4-chloro-2,6-difluorobenzyl)oxy)phenyl)-5-fluoro-6-(1H-tetrazol-5-yl)benzofuran-3-carboxamide] |
| ≤ 100 | O=C(Nc1ccc(OCc2cc(Cl)cs2)cc1)c1coc2cc(-c3nnn[nH]3)c(F)cc12 [Compound 1-56, N-(4-((4-chlorothiophen-2-yl)methoxy)phenyl)-5-fluoro-6-(1H-tetrazol-5-yl)benzofuran-3-carboxamide] |
| 100 to 1000 | O=C(Nc1ccc(OCc2cc(Cl)c(Cl)s2)cc1)c1coc2cc(-c3nnn[nH]3)c(F)cc12 [Compound 1-57, N-(4-((4,5-dichlorothiophen-2-yl)methoxy)phenyl)-5-fluoro-6-(1H-tetrazol-5-yl)benzofuran-3-carboxamide] |
| ≤ 100 | O=C(Nc1ccc(C2CCCC2)c(F)c1)c1csc2cc(-c3nnn[nH]3)ccc12 [Compound 1-58, N-(4-cyclopentyl-3-fluorophenyl)-6-(1H-tetrazol-5-yl)benzo[b]thiophene-3-carboxamide] |
